Laboratory results reported in US20230192705A1, “SHP2 INHIBITORS, COMPOSITIONS AND USES THEREOF” (Betta Pharmaceuticals Co., Ltd, priority 2020, published 2023).

Target: T1, SHP2 (Homo sapiens, UniProt Q06124)
T1 sequence (Q06124 1-593): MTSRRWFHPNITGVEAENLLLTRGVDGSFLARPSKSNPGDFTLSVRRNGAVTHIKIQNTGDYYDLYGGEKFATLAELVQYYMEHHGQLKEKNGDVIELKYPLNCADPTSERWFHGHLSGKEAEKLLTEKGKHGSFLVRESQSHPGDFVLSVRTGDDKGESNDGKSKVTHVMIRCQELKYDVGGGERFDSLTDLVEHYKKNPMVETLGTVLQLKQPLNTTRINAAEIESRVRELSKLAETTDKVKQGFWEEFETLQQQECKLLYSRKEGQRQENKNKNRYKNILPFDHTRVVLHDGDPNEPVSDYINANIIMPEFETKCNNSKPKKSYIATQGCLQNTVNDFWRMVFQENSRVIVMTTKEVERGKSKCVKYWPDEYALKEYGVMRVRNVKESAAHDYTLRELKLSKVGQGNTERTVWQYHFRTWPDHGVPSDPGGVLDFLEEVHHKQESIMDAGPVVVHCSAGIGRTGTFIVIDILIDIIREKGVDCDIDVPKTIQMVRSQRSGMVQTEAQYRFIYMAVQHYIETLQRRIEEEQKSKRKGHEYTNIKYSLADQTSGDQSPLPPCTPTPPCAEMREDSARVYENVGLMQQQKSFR
Assay: SHP2 allosteric inhibitor enzyme activity assay (DiFMUP fluorescence)
Format: biochemical
Details: class symbols
In short: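 SHP2 activated by 0.5 μM IRS1_pY1172(dPEG8)pY1222 peptide, 0.2 ng enzyme per well, 1 h at room temperature with compound (1 μM top, 3-fold series), then DiFMUP substrate 1 h. Buffer: 60 mM HEPES, 75 mM NaCl, 75 mM KCl, 0.05% BRIJ-35, 1 mM EDTA, 5 mM DTT. Fluorescence ex 340/em 450 nm; IC50 by variable-slope fit.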

C[C@@H]1OCC2(CCN(c3nc4[nH]nc(C5(c6ccc(N)cc6)CC5)c4c(=O)[nH]3)CC2)[C@@H]1N [Example 299, 6-((3S,4S)-4-amino-3-methyl-2-oxa-8-azaspiro[4.5]decan-8-yl)-3-(1-(4-aminophenyl)cyclopropyl)-1,5-dihydro-4H-pyrazolo[3,4-d]pyrimidin-4-one]
IC50: 20 to 60 nM

Cc1ccc(C2(c3n[nH]c4nc(N5CCC6(CC5)CO[C@@H](C)[C@H]6N)[nH]c(=O)c34)CC2)cc1 [Example 300, 6-((3S,4S)-4-amino-3-methyl-2-oxa-8-azaspiro[4.5]decan-8-yl)-3-(1-(p-tolyl)cyclopropyl)-1,5-dihydro-4H-pyrazolo[3,4-d]pyrimidin-4-one]
IC50: 20 to 60 nM

Cc1cccc(C2(c3n[nH]c4nc(N5CCC6(CC5)CO[C@@H](C)[C@H]6N)[nH]c(=O)c34)CC2)c1 [Example 301, 6-((3S,4S)-4-amino-3-methyl-2-oxa-8-azaspiro[4.5]decan-8-yl)-3-(1-(m-tolyl)cyclopropyl)-1,5-dihydro-4H-pyrazolo[3,4-d]pyrimidin-4-one]
IC50: 20 to 60 nM

Cc1ccccc1C1(c2n[nH]c3nc(N4CCC5(CC4)CO[C@@H](C)[C@H]5N)[nH]c(=O)c23)CC1 [Example 302, 6-((3S,4S)-4-amino-3-methyl-2-oxa-8-azaspiro[4.5]decan-8-yl)-3-(1-(o-tolyl)cyclopropyl)-1,5-dihydro-4H-pyrazolo[3,4-d]pyrimidin-4-one]
IC50: 20 to 60 nM

CCOC(=O)Nc1ccc(C2(c3n[nH]c4nc(N5CCC6(CC5)CO[C@@H](C)[C@H]6N)[nH]c(=O)c34)CC2)cc1 [Example 303, ethyl(4-(1-(6-((3S,4S)-4-amino-3-methyl-2-oxa-8-azaspiro[4.5]decan-8-yl)-4-oxo-4,5-dihydro-1H-pyrazolo[3,4-d]pyrimidin-3-yl)cyclopropyl)phenyl)carbamate]
IC50: 20 to 60 nM

COc1ccc(C2(c3n[nH]c4nc(N5CCC6(CC5)CO[C@@H](C)[C@H]6N)[nH]c(=O)c34)CC2)cc1 [Example 304, 6-((3S,4S)-4-amino-3-methyl-2-oxa-8-azaspiro[4.5]decan-8-yl)-3-(1-(4-methoxyphenyl)cyclopropyl)-1,5-dihydro-4H-pyrazolo[3,4-d]pyrimidin-4-one]
IC50: 20 to 60 nM

COc1cccc(C2(c3n[nH]c4nc(N5CCC6(CC5)CO[C@@H](C)[C@H]6N)[nH]c(=O)c34)CC2)c1 [Example 305, 6-((3S,4S)-4-amino-3-methyl-2-oxa-8-azaspiro[4.5]decan-8-yl)-3-(1-(3-methoxyphenyl)cyclopropyl)-1,5-dihydro-4H-pyrazolo[3,4-d]pyrimidin-4-one]
IC50: 20 to 60 nM

COc1ccccc1C1(c2n[nH]c3nc(N4CCC5(CC4)CO[C@@H](C)[C@H]5N)[nH]c(=O)c23)CC1 [Example 306, 6-((3S,4S)-4-amino-3-methyl-2-oxa-8-azaspiro[4.5]decan-8-yl)-3-(1-(2-methoxyphenyl)cyclopropyl)-1,5-dihydro-4H-pyrazolo[3,4-d]pyrimidin-4-one]
IC50: 20 to 60 nM

C[C@@H]1OCC2(CCN(c3nc4[nH]nc(C5(c6ccc(OC(F)(F)F)cc6)CC5)c4c(=O)[nH]3)CC2)[C@@H]1N [Example 307, 6-((3S,4S)-4-amino-3-methyl-2-oxa-8-azaspiro[4.5]decan-8-yl)-3-(1-(4-(trifluoromethoxy)phenyl)cyclopropyl)-1,5-dihydro-4H-pyrazolo[3,4-d]pyrimidin-4-one]
IC50: 20 to 60 nM

C[C@@H]1OCC2(CCN(c3nc4[nH]nc(C5(c6ccc7c(c6)OC(F)(F)O7)CC5)c4c(=O)[nH]3)CC2)[C@@H]1N [Example 308, 6-((3S,4S)-4-amino-3-methyl-2-oxa-8-azaspiro[4.5]decan-8-yl)-3-(1-(2,2-difluorobenzo[d][1,3]dioxol-5-yl)cyclopropyl)-1,5-dihydro-4H-pyrazolo[3,4-d]pyrimidin-4-one]
IC50: > 60 nM

C[C@@H]1OCC2(CCN(c3nc4[nH]nc(C5(c6cccc(Cl)c6Cl)CC5)c4c(=O)[nH]3)CC2)[C@@H]1N [Example 309, 6-((3S,4S)-4-amino-3-methyl-2-oxa-8-azaspiro[4.5]decan-8-yl)-3-(1-(2,3-dichlorophenyl)cyclopropyl)-1,5-dihydro-4H-pyrazolo[3,4-d]pyrimidin-4-one]
IC50: 20 to 60 nM

C[C@@H]1OCC2(CCN(c3nc4[nH]nc(C5(c6cccc(O)c6)CC5)c4c(=O)[nH]3)CC2)[C@@H]1N [Example 310, 6-((3S,4S)-4-amino-3-methyl-2-oxa-8-azaspiro[4.5]decan-8-yl)-3-(1-(3-hydroxyphenyl)cyclopropyl)-1,5-dihydro-4H-pyrazolo[3,4-d]pyrimidin-4-one]
IC50: 20 to 60 nM

C[C@@H]1OCC2(CCN(c3nc4[nH]nc(C5(c6ccc(O)cc6)CC5)c4c(=O)[nH]3)CC2)[C@@H]1N [Example 311, 6-((3S,4S)-4-amino-3-methyl-2-oxa-8-azaspiro[4.5]decan-8-yl)-3-(1-(4-hydroxyphenyl)cyclopropyl)-1,5-dihydro-4H-pyrazolo[3,4-d]pyrimidin-4-one]
IC50: 20 to 60 nM

C[C@@H]1OCC2(CCN(c3nc4[nH]nc(C5(c6ccc(Cl)cc6Cl)CC5)c4c(=O)[nH]3)CC2)[C@@H]1N [Example 313, 6-((3S,4S)-4-amino-3-methyl-2-oxa-8-azaspiro[4.5]decan-8-yl)-3-(1-(2,4-dichlorophenyl)cyclopropyl)-1,5-dihydro-4H-pyrazolo[3,4-d]pyrimidin-4-one]
IC50: > 60 nM

C[C@@H]1OCC2(CCN(c3nc4[nH]nc(C5(c6cccc(-n7cccn7)c6)CC5)c4c(=O)[nH]3)CC2)[C@@H]1N [Example 314, 3-(1-(3-(1H-pyrazol-1-yl)phenyl)cyclopropyl)-6-((3S,4S)-4-amino-3-methyl-2-oxa-8-azaspiro[4.5]decan-8-yl)-1,5-dihydro-4H-pyrazolo[3,4-d]pyrimidin-4-one]
IC50: > 60 nM

C[C@@H]1OCC2(CCN(c3nc4[nH]nc(C5(c6ccc(C#N)cc6)CC5)c4c(=O)[nH]3)CC2)[C@@H]1N [Example 315, 4-(1-(6-((3S,4S)-4-amino-3-methyl-2-oxa-8-azaspiro[4.5]decan-8-yl)-4-oxo-4,5-dihydro-1H-pyrazolo[3,4-d]pyrimidin-3-yl)cyclopropyl)benzonitrile]
IC50: 20 to 60 nM

CC(=O)c1cccc(C2(c3n[nH]c4nc(N5CCC6(CC5)CO[C@H](C)[C@@H]6N)[nH]c(=O)c34)CC2)c1 [Example 316, 3-(1-(3-acetylphenyl)cyclopropyl)-6-((3R,4R)-4-amino-3-methyl-2-oxa-8-azaspiro[4.5]decan-8-yl)-1,5-dihydro-4H-pyrazolo[3,4-d]pyrimidin-4-one]
IC50: 20 to 60 nM

C[C@@H]1OCC2(CCN(c3nc4[nH]nc(C5(c6cccc(Br)c6)CC5)c4c(=O)[nH]3)CC2)[C@@H]1N [Example 317, 6-((3S,4S)-4-amino-3-methyl-2-oxa-8-azaspiro[4.5]decan-8-yl)-3-(1-(3-bromophenyl)cyclopropyl)-1,5-dihydro-4H-pyrazolo[3,4-d]pyrimidin-4-one]
IC50: 20 to 60 nM

Cc1csc(C2(c3n[nH]c4nc(N5CCC6(CC5)CO[C@@H](C)[C@H]6N)[nH]c(=O)c34)CC2)n1 [Example 318, 6-((3S,4S)-4-amino-3-methyl-2-oxa-8-azaspiro[4.5]decan-8-yl)-3-(1-(4-methylthiazol-2-yl)cyclopropyl)-1,5-dihydro-4H-pyrazolo[3,4-d]pyrimidin-4-one]
IC50: 20 to 60 nM

Cc1cccc(C2(c3n[nH]c4nc(N5CCC6(CC5)CO[C@@H](C)[C@H]6N)[nH]c(=O)c34)CC2)n1 [Example 319, 6-((3S,4S)-4-amino-3-methyl-2-oxa-8-azaspiro[4.5]decan-8-yl)-3-(1-(6-methylpyridin-2-yl)cyclopropyl)-1,5-dihydro-4H-pyrazolo[3,4-d]pyrimidin-4-one]
IC50: > 60 nM

C[C@@H]1CCC2(CCN(c3nc4[nH]nc(C5(c6ccccc6)CC5)c4c(=O)[nH]3)CC2)[C@@H]1N [Example 320, 6-((1R,2R)-1-amino-2-methyl-8-azaspiro[4.5]decan-8-yl)-3-(1-phenylcyclopropyl)-1,5-dihydro-4H-pyrazolo[3,4-d]pyrimidin-4-one]
IC50: 20 to 60 nM

N[C@@H]1CCCC12CCN(c1nc3[nH]nc(C4(c5ccccc5)CC4)c3c(=O)[nH]1)CC2 [Example 321, (R)-6-(1-amino-8-azaspiro[4.5]decan-8-yl)-3-(1-phenylcyclopropyl)-1,5-dihydro-4H-pyrazolo[3,4-d]pyrimidin-4-one]
IC50: 20 to 60 nM
